Drawing on patent US9963458B2, “Indole and indoline-type piperidine compounds and uses thereof” (priority 2012, dated 2018), this text covers IC50 for three compounds.

The structures appear in SMILES notation. pIC50: −log10 of the molar value.

Assay type in all cases: in vitro ADME
What all share (details): procedure of Example 14

The target in one experiment is T1, CYP1A2 (Homo sapiens, UniProt P05177).
T1 sequence (P05177 1-516): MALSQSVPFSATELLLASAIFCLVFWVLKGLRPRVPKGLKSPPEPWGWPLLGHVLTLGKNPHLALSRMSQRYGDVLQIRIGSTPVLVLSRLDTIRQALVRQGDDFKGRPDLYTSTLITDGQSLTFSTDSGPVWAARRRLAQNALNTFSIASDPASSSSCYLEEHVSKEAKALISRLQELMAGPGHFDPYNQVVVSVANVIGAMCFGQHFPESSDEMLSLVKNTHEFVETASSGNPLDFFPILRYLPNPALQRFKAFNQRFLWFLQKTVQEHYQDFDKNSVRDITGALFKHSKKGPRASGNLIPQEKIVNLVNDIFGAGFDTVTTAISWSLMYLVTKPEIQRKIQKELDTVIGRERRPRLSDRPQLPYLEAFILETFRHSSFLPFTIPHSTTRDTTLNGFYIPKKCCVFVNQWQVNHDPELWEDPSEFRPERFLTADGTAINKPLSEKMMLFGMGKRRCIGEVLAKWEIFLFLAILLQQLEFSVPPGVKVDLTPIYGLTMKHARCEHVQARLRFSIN
Nature of the experiment: Cytochrome P450 inhibition, pooled human hepatic microsome.

The next experiment addresses T2, CYP2C9 (Homo sapiens, UniProt P11712).
T2 construct: 0.2 mg protein/mL pooled human hepatic microsome enzyme; from tissue; host or cells: pooled human hepatic microsomes
The description is as above.

A further experiment addresses T3, CYP2D6 (Homo sapiens, UniProt P10635).
T3 construct: 0.2 mg protein/mL pooled human hepatic microsome enzyme; from tissue; host or cells: pooled human hepatic microsomes
The experiment is described as follows: Cytochrome P450 inhibition, pooled human hepatic microsome (O-demethylation of dextromethorphan).

In the next experiment the target is T4, CYP3A4 (Homo sapiens, UniProt P08684).
T4 construct: 0.2 mg protein/mL pooled human hepatic microsome enzyme; from tissue; host or cells: pooled human hepatic microsomes
The experiment is described as follows: Cytochrome P450 inhibition, pooled human hepatic microsome.

T3 sequence (P10635 whole entry): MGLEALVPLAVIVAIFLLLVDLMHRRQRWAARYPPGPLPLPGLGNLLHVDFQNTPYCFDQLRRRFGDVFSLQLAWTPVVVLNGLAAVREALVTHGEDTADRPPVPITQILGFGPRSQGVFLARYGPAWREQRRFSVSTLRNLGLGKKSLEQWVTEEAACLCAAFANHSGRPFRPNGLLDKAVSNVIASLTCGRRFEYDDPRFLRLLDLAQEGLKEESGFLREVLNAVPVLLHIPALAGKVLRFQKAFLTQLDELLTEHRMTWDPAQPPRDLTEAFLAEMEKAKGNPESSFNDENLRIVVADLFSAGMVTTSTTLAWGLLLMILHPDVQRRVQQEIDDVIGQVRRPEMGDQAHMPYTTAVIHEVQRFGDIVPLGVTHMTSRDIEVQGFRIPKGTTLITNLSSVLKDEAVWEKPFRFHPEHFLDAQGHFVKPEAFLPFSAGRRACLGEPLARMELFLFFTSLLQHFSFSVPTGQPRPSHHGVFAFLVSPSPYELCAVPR
T4 sequence (P08684 whole entry): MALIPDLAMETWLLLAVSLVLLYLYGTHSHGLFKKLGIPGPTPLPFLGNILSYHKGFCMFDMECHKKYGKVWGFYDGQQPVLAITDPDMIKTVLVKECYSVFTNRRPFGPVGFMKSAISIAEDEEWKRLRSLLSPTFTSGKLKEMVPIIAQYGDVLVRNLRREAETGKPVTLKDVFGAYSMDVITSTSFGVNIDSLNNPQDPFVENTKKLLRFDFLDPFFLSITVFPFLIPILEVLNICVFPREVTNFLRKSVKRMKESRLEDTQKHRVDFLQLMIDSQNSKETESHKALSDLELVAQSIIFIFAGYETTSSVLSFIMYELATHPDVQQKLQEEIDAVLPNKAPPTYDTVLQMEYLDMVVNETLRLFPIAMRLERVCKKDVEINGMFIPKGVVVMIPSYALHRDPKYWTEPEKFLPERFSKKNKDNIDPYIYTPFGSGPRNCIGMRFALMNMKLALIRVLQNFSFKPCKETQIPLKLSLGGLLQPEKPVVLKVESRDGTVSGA
T2 sequence (P11712 whole entry): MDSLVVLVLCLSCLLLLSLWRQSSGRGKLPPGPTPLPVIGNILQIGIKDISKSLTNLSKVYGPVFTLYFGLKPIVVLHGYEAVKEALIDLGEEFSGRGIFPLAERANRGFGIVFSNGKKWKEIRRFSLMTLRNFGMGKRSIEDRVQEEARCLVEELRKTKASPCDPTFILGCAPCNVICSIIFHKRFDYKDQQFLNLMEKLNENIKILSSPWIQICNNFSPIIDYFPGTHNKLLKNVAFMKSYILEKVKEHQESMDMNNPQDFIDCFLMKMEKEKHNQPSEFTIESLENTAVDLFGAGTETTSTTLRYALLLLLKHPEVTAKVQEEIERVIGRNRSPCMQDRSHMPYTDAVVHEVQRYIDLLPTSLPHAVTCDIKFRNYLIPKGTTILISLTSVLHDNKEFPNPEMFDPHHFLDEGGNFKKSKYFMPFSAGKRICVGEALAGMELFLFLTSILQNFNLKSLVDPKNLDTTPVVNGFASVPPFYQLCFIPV

As a reminder, the pIC50 is the IC50 on a negative log10 scale, so that one unit is a factor of ten. Take `O=C(O)Cc1cn([C@H]2C[C@H]3CCC[C@@H](C2)N3[C@H]2C[C@@H]3CCC[C@@H](C3)C2)c2ccccc12` [Compound 7]: the negative-log IC50 (pIC50) on CYP1A2 is under 4.70; against CYP2C9, under 4.70; against CYP2D6, 4.84; against CYP3A4 it was under 4.70.

`c1ccc2c(c1)ccn2[C@H]1C[C@H]2CCC[C@@H](C1)N2[C@H]1C[C@@H]2CCC[C@@H](C2)C1` [Compound 11]: the pIC50 against CYP1A2, against CYP2C9, against CYP2D6 and against CYP3A4 was under 4.70 in each case.

Consider `O=C(O)Cc1cn([C@H]2C[C@H]3CCC[C@@H](C2)N3C2CCCCCCCCC2)c2ccccc12` [Compound 23, 2-(1-((1R,3r,5S)-9-cyclodecyl-9-azabicyclo[3.3.1]nonan-3-yl)-1H-indol-3-yl)acetic acid], for which the negative-log IC50 (pIC50) at CYP1A2 is under 4.70; against CYP2C9 it was under 4.70; against CYP2D6 it was 5.94; against CYP3A4 it was under 4.70.
